Where a name gives a salt, the structure may show the parent alone.
Legend:
E. coli (ATCC 25922) = test: CO-ADD antibacterial assay, growth inhibition (OD600); format: cell-based, Escherichia coli; details: up to 32 μg/mL; for MIC / Dmax: Escherichia coli, ATCC25922; for MIC / MIC E. coli: predicted or measured MIC, ≥75% growth inhibition; for Dmax: read-out: Dmax E. coli, maximum % inhibition
[1] = tested on: P. aeruginosa (ATCC 27853); test: as above; format: cell-based, Pseudomonas aeruginosa; details: up to 32 μg/mL; for MIC / Dmax: Pseudomonas aeruginosa, ATCC27853; for MIC / MIC P. aeruginosa: predicted or measured MIC, ≥75% growth inhibition; for Dmax: read-out: Dmax P. aeruginosa, maximum % inhibition
[2] = tested on: S. aureus MRSA (ATCC 43300); test: as above; format: cell-based, Staphylococcus aureus; details: for MIC / Dmax: Staphylococcus aureus; for MIC / MIC S. aureus (MRSA): predicted or measured MIC, lowest concentration with ≥75% growth inhibition, 0.25-32 μg/mL, 18 h; for Dmax / Dmax S. aureus (MRSA), maximum % inhibition: up to 32 μg/mL; for Dmax: read-out: Dmax S. aureus (MRSA), maximum % inhibition
C. albicans (ATCC 90028) = test: CO-ADD antifungal assay, growth inhibition (OD630); format: cell-based, Candida albicans; details: for MIC / Dmax: Candida albicans, ATCC90028; for MIC / MIC C. albicans: predicted or measured MIC, ≥75% growth inhibition, 36 h; for MIC / Dmax / MIC C. albicans / Dmax C. albicans, maximum % inhibition: up to 32 μg/mL; for Dmax: read-out: Dmax C. albicans, maximum % inhibition
[3] = tested on: A. baumannii (ATCC 19606); test: CO-ADD antibacterial assay, growth inhibition (OD600); format: cell-based, Acinetobacter baumannii; details: up to 32 μg/mL; for MIC / Dmax: Acinetobacter baumannii, ATCC19606; for MIC / MIC A. baumannii: predicted or measured MIC, ≥75% growth inhibition; for Dmax: read-out: Dmax A. baumannii, maximum % inhibition
[4] = tested on: K. pneumoniae (ATCC 700603); test: as above; format: cell-based, Klebsiella pneumoniae; details: up to 32 μg/mL; for MIC / Dmax: Klebsiella pneumoniae, ATCC700603; for MIC / MIC K. pneumoniae: predicted or measured MIC, ≥75% growth inhibition; for Dmax: read-out: Dmax K. pneumoniae, maximum % inhibition
[5] = tested on: C. neoformans (ATCC 208821); test: CO-ADD antifungal assay, growth inhibition (resazurin, OD600-570); format: cell-based, Cryptococcus neoformans; details: up to 32 μg/mL; for MIC / Dmax: Cryptococcus neoformans, ATCC208821; for MIC / MIC C. neoformans: predicted or measured MIC, ≥75% growth inhibition, 36 h; for Dmax: read-out: Dmax C. neoformans, maximum % inhibition

| Compound | MIC (E. coli (ATCC 25922)) [µg/mL] | Dmax (E. coli (ATCC 25922)) [%] | MIC [1] [µg/mL] | Dmax [1] [%] | MIC [2] [µg/mL] | Dmax [2] [%] | MIC (C. albicans (ATCC 90028)) [µg/mL] | MIC E. coli (E. coli (ATCC 25922)) [µg/mL] | Dmax E. coli, maximum % inhibition (E. coli (ATCC 25922)) [%] | MIC P. aeruginosa [1] [µg/mL] | Dmax P. aeruginosa, maximum % inhibition [1] [%] | MIC S. aureus (MRSA) [2] [µg/mL] | Dmax S. aureus (MRSA), maximum % inhibition [2] [%] | MIC C. albicans (C. albicans (ATCC 90028)) [µg/mL] | Dmax C. albicans, maximum % inhibition (C. albicans (ATCC 90028)) [%] | MIC A. baumannii [3] [µg/mL] | Dmax A. baumannii, maximum % inhibition [3] [%] | MIC K. pneumoniae [4] [µg/mL] | Dmax K. pneumoniae, maximum % inhibition [4] [%] | MIC C. neoformans [5] [µg/mL] | other results |
| --- | --- | --- | --- | --- | --- | --- | --- | --- | --- | --- | --- | --- | --- | --- | --- | --- | --- | --- | --- | --- | --- |
| O=C(O)CC(O)(CC(=O)O)C(=O)O [Compound 1, Trisodium citrate, reference compound] | > 32 | 6.14 | > 32 | 10.3 | > 32 | 10.6 | > 32 | – | – | – | – | – | – | – | – | – | – | – | – | – | Dmax (C. albicans (ATCC 90028)): 0.28%; MIC [3]: > 32 µg/mL; Dmax [3]: 18%; MIC [4]: > 32 µg/mL; Dmax [4]: 14.2%; MIC [5]: > 32 µg/mL; Dmax [5]: -8.24% |
| Oc1cc2ccccc2cc1O [Compound 2, 2,3-dihydroxynaphthalene, reference compound] | > 32 | 6.86 | > 32 | 14.6 | > 32 | 12.6 | > 32 | – | – | – | – | – | – | – | – | – | – | – | – | – | Dmax (C. albicans (ATCC 90028)): 16.3%; MIC [3]: > 32 µg/mL; Dmax [3]: 31.3%; MIC [4]: > 32 µg/mL; Dmax [4]: 26.8%; MIC [5]: > 32 µg/mL; Dmax [5]: -9.97% |
| O=C(O)c1ccccc1O [Compound 6, salicylic acid, reference compound] | > 32 | -0.01 | > 32 | 9.76 | > 32 | 13.9 | > 32 | – | – | – | – | – | – | – | – | – | – | – | – | – | Dmax (C. albicans (ATCC 90028)): 30.9%; MIC [3]: > 32 µg/mL; Dmax [3]: 17.9%; MIC [4]: > 32 µg/mL; Dmax [4]: 17.1%; MIC [5]: > 32 µg/mL; Dmax [5]: -10.7% |
| [K+].[K+].c1ccc2cc3c(cc2c1)[O][Ti-2]12([O]3)([O]c3cc4ccccc4cc3[O]1)[O]c1cc3ccccc3cc1[O]2 [Compound 8, K2[Ti(Naphthalene-2,3-diolate)3]] | – | – | – | – | – | – | – | >32 | 2.67 | >32 | 13.43 | >32 | 52.5 | >32 | 57.57 | >32 | 24.76 | >32 | 22.94 | >32 | Dmax C. neoformans, maximum % inhibition [5]: −1.45% |
| O=C(O)c1ccc(-n2nc3nc2-c2ccccc2[O][Ti]2([O]c4ccccc4-3)[O]c3ccccc3-c3nc(n(-c4ccc(C(=O)O)cc4)n3)-c3ccccc3[O]2)cc1 [Compound 10, titanium(IV) bis(deferasirox)] | – | – | – | – | – | – | – | >32 | 20.44 | >32 | 7.57 | 16 | 98.2 | >32 | 5.74 | >32 | 16.28 | >32 | 34.61 | >32 | MIC against MRSA in units of molarity ([2]; converted from 16 μg/mL): 20.2 µM; Dmax S. aureus (MRSA), maximum % inhibition ([2]; listed as Ti(Deferasirox)2): ~100%; Dmax C. neoformans, maximum % inhibition [5]: −5.72% |
| O=C([O-])C(=O)O.O=C([O-])C(=O)O.[K+].[K+].[O]=[Ti] [Compound 14, Potassium dioxalatoxotitanate(IV) dihydrate] | – | – | – | – | – | – | – | >32 | 11.0 | >32 | 7.5 | >32 | 40.5 | 32 | 77.3 | >32 | 8.2 | >32 | 17.2 | >32 | C. albicans MIC value in units of molarity (C. albicans (ATCC 90028); converted from 32 μg/mL (Table S1)): 90.4 µM; Dmax C. albicans, maximum % inhibition (C. albicans (ATCC 90028); listed as K2[TiO(Oxalate)2]): greater than 75% |
| [Cu(Deferasirox)(H2O)]2 [Compound 15] | – | – | – | – | – | – | – | >32 | −9.5 | >32 | 19.2 | >32 | 26.9 | >32 | 34.0 | >32 | 7.8 | >32 | 7.7 | >32 | – |

Source: PMC8868518, “Exploring Titanium(IV) Complexes as Potential Antimicrobial Compounds” (Antibiotics, 2022)
